We go through 6 compounds from ChEMBL document CHEMBL4834424, “Targeting Chikungunya Virus Replication by Benzoannulene Inhibitors” (J Med Chem, 2021).

In brackets after ≈: the same amount, converted by molar mass. Activity calls are given as the source filed them. No cut-off for these calls is given here. Where only a bound is given, the exact number is not on record here.

For orientation: CC50 means the concentration giving 50% cytotoxicity. A word on the solubility: it is the dissolved amount per volume that the medium holds. One may read the EC50 as the concentration at which the effect is half-maximal. Broadly, the logD is the decadic logarithm of the distribution of all forms, ionised or not, between an organic phase and buffer at a given pH. In general, EC90 refers to the concentration needed for an effect of 90%. As a reminder, the IC50 is the concentration that gives 50% inhibition.

The test system of data set [1] is Chikungunya virus. In words: Antiviral activity against CHIKV infected in human NHDF cells assessed as reduction in virus titer in cell supernatant by measuring inhibition of plaque formation using Vero cells at 10 uM pretreated with NHDF cells followed by infected with virus incubated for 24 hrs and measured following infection of supernatants with Vero cells for 48 hrs by plaque based methylene blue dye analysis. The format is functional. To be noted: time 72 hrs.

Another data set concerns NHDF. The data set can be described thus: (§1) Cytotoxicity against human NHDF cells assessed as cell viability measured after 24 hrs by Cell Titer Glo luminescent assay. The format is cell-based. To be noted: nhdf, 24 h. In general terms: In ATP-based viability assays light output follows the ATP content of the culture.
Data set [2] in a line: Aqueous solubility of the compound. To be noted: aqueous; read-out: solubility. The format is physicochemical.
The subject of data set [3] is Chikungunya virus. In words: Antiviral activity against CHIKV infected in human NHDF cells assessed as reduction in virus titer in cell supernatant by measuring inhibition of plaque formation using Vero cells pretreated with NHDF cells followed by infected with virus incubated for 24 hrs and measured following infection of supernatants with Vero cells for 48 hrs by plaque based methylene blue dye analysis. The format is functional, organism-based.

Data set [4] in a line: as §1. The format is cell-based. Particulars: NHDF cells.
Data set [5] is described as follows: Octanol-aqueous buffer distribution coefficient, log D of the compound by LC-MS analysis. The format is physicochemical.
Data set [6] in a line: Metabolic stability in human liver microsomes assessed as half life in presence of NADPH incubated up to 45 mins by LC-MS/MS analysis. The format is ADME, Microsome. On the technique in general: Liver microsomes are vesicles of endoplasmic reticulum, rich in cytochrome P450 enzymes.
The subject of data set [7] is Chikungunya virus. The format is functional. To be noted: 181-25, C6, time 48 hrs.
The test system of data set [8] is Venezuelan equine encephalitis virus. The data set can be described thus: Antiviral activity against Venezuelan equine encephalitis virus TC83 infected in Asian tiger mosquito C6/36 cells assessed as reduction in virus titer in cell supernatant by measuring inhibition of plaque formation using Vero cells and measured following infection of supernatants with Vero cells for 48 hrs pi by serial dilution plaque based methylene blue dye analysis. The format is functional.

The test system of the next data set is West Nile virus. In words: Antiviral activity against West nile virus infected in HEK293 cells assessed as reduction in virus titer in cell supernatant by measuring inhibition of plaque formation using Vero cells at 10 uM measured following infection of supernatants with Vero cells for 48 hrs pi by serial dilution plaque based methylene blue dye analysis. The format is functional.

A further data set deals with dengue virus type 2. The data set can be described thus: Antiviral activity against DENV2 infected in HEK293 cells assessed as reduction in virus titer in cell supernatant by measuring inhibition of plaque formation using Vero cells at 10 uM measured following infection of supernatants with Vero cells for 48 hrs pi by serial dilution plaque based methylene blue dye analysis. The format is functional.

The target in data set [9] is Dihydroorotate dehydrogenase (quinone), mitochondrial (Homo sapiens, UniProt Q02127).
The test system of data set [10] is Chikungunya virus. In words: Antiviral activity against CHIKV 99659 infected in Asian tiger mosquito C6/36 cells assessed as reduction in virus titer in cell supernatant by measuring inhibition of plaque formation using Vero cells and measured following infection of supernatants with Vero cells for 48 hrs pi by serial dilution plaque based methylene blue dye analysis. The format is functional. To be noted: Chikungunya virus, 99659, C6.

Data set [11] concerns Chikungunya virus. The data set can be described thus: Antiviral activity against CHIKV LR2006-OPY1 infected in Asian tiger mosquito C6/36 cells assessed as reduction in virus titer in cell supernatant by measuring inhibition of plaque formation using Vero cells and measured following infection of supernatants with Vero cells for 48 hrs pi by serial dilution plaque based methylene blue dye analysis. The format is functional.

Data set [12] relates to Chikungunya virus. The data set can be described thus: Antiviral activity against CHIKV 37997 infected in Asian tiger mosquito C6/36 cells assessed as reduction in virus titer in cell supernatant by measuring inhibition of plaque formation using Vero cells and measured following infection of supernatants with Vero cells for 48 hrs pi by serial dilution plaque based methylene blue dye analysis. The format is functional. To be noted: Chikungunya virus, 37997, C6.

The test system of another data set is Mayaro virus. The data set can be described thus: Antiviral activity against Mayaro virus TRVL infected in Asian tiger mosquito C6/36 cells assessed as reduction in virus titer in cell supernatant by measuring inhibition of plaque formation using Vero cells and measured following infection of supernatants with Vero cells for 48 hrs pi by serial dilution plaque based methylene blue dye analysis. The format is functional.

A further data set deals with Onyong-nyong virus. In words: Antiviral activity against O'nyong-nyong virus infected in Asian tiger mosquito C6/36 cells assessed as reduction in virus titer in cell supernatant by measuring inhibition of plaque formation using Vero cells and measured following infection of supernatants with Vero cells for 48 hrs pi by serial dilution plaque based methylene blue dye analysis. The format is functional.

The nature of data set [13]: Antiviral activity against Ross river virus infected in Asian tiger mosquito C6/36 cells assessed as reduction in virus titer in cell supernatant by measuring inhibition of plaque formation using Vero cells and measured following infection of supernatants with Vero cells for 48 hrs pi by serial dilution plaque based methylene blue dye analysis. To be noted: […]. The format is functional.

Another data set concerns Una virus. The data set can be described thus: Antiviral activity against Una virus MAC150 infected in Asian tiger mosquito C6/36 cells assessed as reduction in virus titer in cell supernatant by measuring inhibition of plaque formation using Vero cells and measured following infection of supernatants with Vero cells for 48 hrs pi by serial dilution plaque based methylene blue dye analysis. The format is functional.

The subject of data set [14] is Chikungunya virus. In words: Antiviral activity against CHIKV infected in mouse NIH3T3 cells assessed as reduction in virus titer in cell supernatant by measuring inhibition of plaque formation using Vero cells pretreated with NIH3T3 cells followed by infected with virus incubated for 24 hrs and measured following infection of supernatants with Vero cells for 48 hrs by plaque based methylene blue dye analysis. The format is functional. To be noted: dose 10 µM.

The test system of data set [15] is Chikungunya virus. The data set can be described thus: Antiviral activity against CHIKV infected in IFN regulatory factor 3 telomerized human fibroblast cells assessed as reduction in virus titer in cell supernatant by measuring inhibition of plaque formation using Vero cells […] followed by infected with virus incubated for 24 hrs and measured following infection of supernatants with Vero cells for 48 hrs by plaque based …. The format is functional. Particulars: time 72 hrs.

Data set [16] concerns Chikungunya virus. The format is functional, organism-based. Particulars: 181-25, Vero, dose 10.0 µM, time 20.0 hrs.
Data set [17] concerns Chikungunya virus. The data set can be described thus: Antiviral activity against CHIKV-nLuc RNA transfected NHDF cells assessed as decrease in CHIKV RNA at 10 uM pretreated 1 hr before transfection measured after 12 hrs by Nano-Glo luciferase assay. The format is functional, organism-based. To be noted: time 13.0 hrs.
Data set [18] deals with Chikungunya virus. The format is functional, organism-based. To be noted: 181-25, NHDF, dose 20.0 µM, time 13.0 hrs.
For data set [19], the system named is Chikungunya virus. The format is functional, organism-based. Particulars: 181-25, NHDF, dose 20.0 µM, time 13.0 hrs. This is another data set of the same source.
The subject of data set [20] is Chikungunya virus. The format is functional, organism-based. To be noted: 181-25, NHDF, dose 20.0 µM, time 13.0 hrs. The source holds these as a separate data set.
For data set [21], the system named is Chikungunya virus. The format is functional, organism-based. To be noted: 181-25, NHDF, dose 20.0 µM, time 13.0 hrs. The source holds these as a separate data set.
The test system of data set [22] is Venezuelan equine encephalitis virus. The data set can be described thus: Antiviral activity against Venezuelan equine encephalitis virus TC83 infected in human […] cells assessed as reduction in virus titer in cell supernatant by measuring inhibition of plaque formation using Vero cells at 10 uM measured following infection of supernatants with Vero cells for 48 hrs pi by serial dilution plaque based methylene blue dye analysis. The format is functional, NHDF.

Data set [23] deals with Chikungunya virus. In words: Antiviral activity against resistance mutation induced CHIKV-117 infected in […] cells assessed as viral infectivity in Vero cells at 10 uM measured up to 24 hrs of post infection by supernatant was quantified by plaque assay. The format is functional, organism-based. Particulars: time hrs <=24.
For data set [24], the system named is Chikungunya virus. The data set can be described thus: Antiviral activity against resistance mutation induced CHIKV-119 infected in […] cells assessed as viral infectivity in Vero cells at 10 uM measured up to 24 hrs of post infection by supernatant was quantified by plaque assay. The format is functional, organism-based. To be noted: time hrs <=24.

Data set [25] relates to Chikungunya virus. In words: Antiviral activity against resistance mutation induced CHIKV-117/119 infected in […] cells assessed as viral infectivity in Vero cells at 10 uM measured up to 24 hrs of post infection by supernatant was quantified by plaque assay. The format is functional, organism-based. To be noted: time hrs <=24.
The test system of data set [26] is Chikungunya virus. In words: Antiviral activity against CHIKV-nLuc RNA transfected NHDF cells assessed as decrease in Nano-luc signal at 20 uM pretreated 24 hrs before transfection in presence of uridine measured after 24 hrs by Nano-Glo luciferase assay. The format is functional, organism-based. Particulars: time 48.0 hrs.
Data set [27] concerns Chikungunya virus. The data set can be described thus: Antiviral activity against CHIKV-nLuc RNA transfected NHDF cells assessed as decrease in Nano-luc signal at 20 uM pretreated 24 hrs before transfection in presence of guanosine measured after 24 hrs by Nano-Glo luciferase assay. The format is functional, organism-based.
Data set [28] in a line: Cytotoxicity against HEK293 cells at 10 uM. The format is cell-based. To be noted: human.
Data set [29] is described as follows: Metabolic stability in mouse liver microsomes assessed as half life in presence of NADPH incubated up to 45 mins by LC-MS/MS analysis. The format is ADME, Microsome. More on the design: unit not given here. To be noted: liver microsomes.

Dihydroorotate dehydrogenase (quinone), mitochondrial, sequence (Q02127 whole entry): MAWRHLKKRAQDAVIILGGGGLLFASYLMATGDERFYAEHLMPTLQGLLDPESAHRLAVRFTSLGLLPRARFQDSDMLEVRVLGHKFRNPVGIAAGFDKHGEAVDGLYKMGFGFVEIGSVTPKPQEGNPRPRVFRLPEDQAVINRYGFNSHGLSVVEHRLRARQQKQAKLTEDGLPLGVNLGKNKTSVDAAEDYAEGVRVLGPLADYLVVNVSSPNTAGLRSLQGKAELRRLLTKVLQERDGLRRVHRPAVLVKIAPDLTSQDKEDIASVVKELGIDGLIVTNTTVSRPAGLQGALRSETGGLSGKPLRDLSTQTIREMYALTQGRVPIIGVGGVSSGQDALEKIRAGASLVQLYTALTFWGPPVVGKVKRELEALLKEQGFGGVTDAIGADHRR

As to `CC(C)(C)c1ccc(C(=O)Nc2cc3c(cc2OCc2ccccn2)CCCCC3)cc1`, in the data set with Chikungunya virus [1], the “log(activity)” value is under 1. Also, the CC50 with NHDF is 9400 nM.

As to `COc1cc2c(cc1C(=O)Nc1ccc(C(C)(C)C)cc1)CCCCC2`, the figures for the “log(activity)” value in the data set with Chikungunya virus [1], in the data set on West Nile virus and with dengue virus type 2 were 3.2, 1.7 and 1.9, respectively. Besides, the solubility in [2] stood at 0.5 µM (≈ 0.176 µg/mL). In addition, the EC50 in the data set on Chikungunya virus [3] amounted to 480 nM. The CC50 at 24 h in data set [4] was over 30000 nM. This compound displayed a logD in data set [5] of 4. Moreover, in [6], the half-life was 99 h. In addition, the figures for the EC90 (in the data set with Chikungunya virus [7]; in data set [8]) were 1600 nM and 2900 nM, respectively. The compound also yielded an IC50 in data set [9] of 3000 nM.

For `COc1cc2c(cc1NC(=O)c1ccc(C(C)(C)C)cc1)CCCCC2`, the “log(activity)” value is recorded as 4 in the data set on Chikungunya virus [1], 2.7 in data set [22], 2 with West Nile virus and 1.5 with dengue virus type 2. Besides, in [4], the CC50 at 24 h was 78500 nM. Moreover, the EC90 in the data set with Chikungunya virus [10] was determined as 780 nM; in the data set with Chikungunya virus [11], 150 nM; with Chikungunya virus [12], 180 nM; with Mayaro virus it was 250 nM; in the data set on Onyong-nyong virus, 180 nM; in [13], 210 nM. The EC90 in the data set with Una virus was found to be 340 nM; in data set [8], 2900 nM; in the data set on Chikungunya virus [14], 1010 nM; in the data set on Chikungunya virus [15], 4870 nM. For the same compound, the inhibition result in the data set with Chikungunya virus [16], in the data set on Chikungunya virus [17], with Chikungunya virus [18], with Chikungunya virus [19], in the data set with Chikungunya virus [20] and with Chikungunya virus [21] was “Active” in each case. The outcome in the data set on Chikungunya virus [23], in the data set with Chikungunya virus [24], in the data set on Chikungunya virus [25] and in the data set with Chikungunya virus [27] was Active. In addition, the outcome with Chikungunya virus [26] was inactive. The CC50 in data set [28] was over 30000 nM. In addition, inhibition in data set [9] was half-maximal at 3500 nM (IC50).

Turning to `CC(C)(C)c1ccc(NC(=O)c2ccc3c(c2)CCCCC3)cc1`, the “log(activity)” value in the data set on Chikungunya virus [1] was 4.2. Moreover, the concentration for a half-maximal effect (EC50) in the data set with Chikungunya virus [3] was determined as 7000 nM. In data set [4], the CC50 at 24 h is over 30000 nM. The compound also yielded a CC50 in [28] of over 30000 nM.

Take `CCOc1cc2c(cc1NC(=O)c1ccc(C(C)(C)C)cc1)CCCC2`: the “log(activity)” value in the data set on Chikungunya virus [1] is 1. Moreover, in the data set on Chikungunya virus [3], the EC50 was 7780 nM. In the data set on NHDF, the cytotoxic concentration (CC50) is 3860 nM.

For the compound `CCc1cc2c(cc1NC(=O)c1ccc(C(C)(C)C)cc1)CCCCC2`, the “log(activity)” value with Chikungunya virus [1] is listed as 4.9. In data set [2], the solubility was under 1 µM. Also, in the data set with Chikungunya virus [3], the EC50 came out at 1700 nM. The CC50 at 24 h in [4] is over 30000 nM. In data set [5], the logD was found to be 5. Moreover, the half-life in data set [6] is 37 h; in data set [29], 660. The compound further yielded a concentration for half-maximal inhibition (IC50) in [9] of over 30000 nM.
